# According to US20070213305A1, “N-alkyl-N-aryl-thienopyrimidin-4-amines and analogs as activators of caspases and inducers of apoptosis and the use thereof” (Cytovia, Inc., priority 2005, published 2007):
# Structures can show the parent of a compound that is named as a salt. Where two headings read alike, the source gives them in different places.
# Experiments:
# [1] = test system: human breast cancer cell line T-47D; test: Caspase cascade activation (DEVD-R110 fluorogenic substrate) in T-47D cells; type: cell-based; details: 24 h, read-out: Caspase Activation Potency EC50 (nM) (24 h) T-47D
# Experimental: (§1) Human breast cancer cell line T-47D, human lung cancer cell line H1299 and human hepatocellular carcinoma cell line SNU398 were grown according to media component mixtures designated by American Type Culture Collection+10% FCS (Invitrogen Corporation), in a 5% CO2-95% humidity incubator at 37° C. T-47D and H1299 cells were maintained at a cell density between 50 and 80% confluency at a cell density of 0.1 to 0.6×10^6 cells/mL. Cells were harvested at 600×g and resuspended at 0.65×10^6 cells/mL into appropriate media+10% FCS. An aliquot of 22.5 μL of cells was added to a well of a 384-well microtiter plate containing 2.5 μL of a 10% DMSO in RPMI-1640 media solution containing 0.16 to 100 μM of N-(4-methoxyphenyl)-N, 2-dimethylthieno[3,2-d]pyrimidin-4-amine or other test compound (0.016 to 10 μM final). An aliquot of 22.5 μL of cells was added to a well of a 384-well microtiter plate containing 2.5 μL of a 10 % DMSO in RPMI-1640 media solution without test compound as the control sample. The samples were mixed by agitation and then incubated at 37° C. for 24 h or 48 h in a 5% CO2-95% humidity incubator. After incubation, the samples were removed from the incubator and 25 μL of a solution containing 14 μM of N-(Ac-DEVD)-N′-ethoxycarbonyl-R110 (SEQ ID No.:1) fluorogenic substrate (Cytovia, Inc.; WO99/18856), 20% sucrose (Sigma), 20 mM DTT (Sigma), 200 mM NaCI (Sigma), 40 mM Na PIPES buffer pH 7.2 (Sigma), and 500 μg/mL lysolecithin (Calbiochem) was added. The samples were mixed by agitation and incubated at room temperature. Using a fluorescent plate reader (Model SPECTRAfluor Plus, Tecan), an initial reading (T=0) was made approximately 1-2 min after addition of the substrate solution, employing excitation at 485 nm and emission at 530 nm, to determine the background fluorescence of the control sample. After the 3 h incubation, the samples were read for fluorescence as above (T=3 h).
# (§2) The Relative Fluorescence Unit values (RFU) were used to calculate the sample readings as follows: RFU(T=3h)-Control RFU(T=0)=Net RFU(T=3h)
# (§3) The activity of caspase cascade activation was determined by the ratio of the net RFU value for N-(4-methoxyphenyl)-N,2-dimethylthieno[3,2-d]pyrimidin-4-amine or other test compound to that of control samples. The EC50 (nM) was determined by a sigmoidal dose-response calculation (Prism 3.0, GraphPad Software Inc.).
# [2] = test system: human lung cancer cell line H1299; test: Caspase cascade activation (DEVD-R110 fluorogenic substrate) in H1299 cells; type: cell-based; details: read-out: Caspase Activation Potency EC50 (nM) (24 h) H1299
# Experimental: as §1, §2, §3
# T-47D cells = test: Inhibition of cell proliferation (GI50, CellTiter-Glo) in T-47D cells; type: cell-based, human; details: Homo sapiens; T47D, 48 h incubation; read-out: GI50 in Cancer Cells GI50 (nM) T47D
# Experimental: (§4) T-47D, HT29, H1299, MX-1 and MDAMB435 cells were grown and harvested as in Example 29. An aliquot of 90 μL of cells (4.4×10^4 cells/mL) was added to a well of a 96-well microtiter plate containing 5 μL of a 10% DMSO in RPMI-1640 media solution containing 10 nM to 100 μM of N-(4-methoxyphenyl)-N,2-dimethylthieno[2,3-d]pyrimidin-4-amine (1 nM to 10 μM final) or related compounds. An aliquot of […] of cells was added to a well of a 96-well microtiter plate containing 5 μL of a 10% DMSO in RPMI-1640 media solution without compound as the control sample for maximal cell proliferation (LMax). The samples were mixed by agitation and then incubated at 37° C. for 48 h in a 5% CO2-95% humidity incubator. After incubation, the samples were removed from the incubator and 25 μL of CellTiter-Glo™ reagent (Promega) was added. The samples were mixed by agitation and incubated at room temperature for 10-15 min. Plates were then read using a luminescent plate reader (Model SPECTRAfluor Plus, Tecan) to give Ltest values.
# (§5) The samples were mixed by agitation and then incubated at 37° C. for 0.5 h in a 5% CO2-95% humidity incubator. After incubation, the samples were removed from the incubator and 25 μL of CellTiter-Glo™ reagent (Promega) was added. The samples were mixed by agitation and incubated at […] room temperature in a 5% CO2-95% humidity incubator. […] was read as above, (Lstart) defining luminescence for initial cell number used as baseline in GI50 determinations. ps Calculation:
# (§6) GI50 (dose for 50% inhibition of cell proliferation) is the concentration where [(LTest-LStart)/(LMax-LStart)]=0.5.
# MX-1 cells = test: Inhibition of cell proliferation (GI50, CellTiter-Glo) in MX-1 cells; type: cell-based; details: Homo sapiens; MX1, 48 h incubation; read-out: GI50 in Cancer Cells GI50 (nM) MX1
# Experimental: as §4, §5, §6
# MDAMB435 cells = test: Inhibition of cell proliferation (GI50, CellTiter-Glo) in MDAMB435 cells; type: cell-based; details: Homo sapiens, MDA-MB-435; MDAMB435, 48 h incubation; read-out: GI50 in Cancer Cells GI50 (nM) MDAMB435
# Experimental: as §4, §5, §6
# H1299 cells = test: Inhibition of cell proliferation (GI50, CellTiter-Glo) in H1299 cells; type: cell-based, human; details: Homo sapiens, NCI-H1299; H1299, 48 h incubation; read-out: GI50 in Cancer Cells GI50 (nM) H1299
# Experimental: as §4, §5, §6
# HT29 cells = test: Inhibition of cell proliferation (GI50, CellTiter-Glo) in HT29 cells; type: cell-based; details: Homo sapiens, HT-29; HT29, 48 h incubation; read-out: GI50 in Cancer Cells GI50 (nM) HT29
# Experimental: as §4, §5, §6
# [3] = test system: human hepatocellular carcinoma cell line SNU398; test: Caspase cascade activation (DEVD-R110 fluorogenic substrate) in SNU398 cells; type: cell-based; details: SNU398, 24 h, read-out: Caspase Activation Potency EC50 (nM) (24 h) SNU398
# Experimental: as §1, §2, §3
# Several compounds were also tested in other cancer cells lines (48 h assay), including human hepatocellular carcinoma cell line SNU398, human colon carcinoma cell line […], human B cell lymphoblastoid cell line Ramos, human Burkitt's lymphoma cell line Namalwa, and cervical cancer cell line HeLa, and the data are summarized in Table II.
compound,measurement,setting,value
"COc1ccc(N(C)c2nc(C)nc3sccc23)cc1 [Example 2, N-(4-Methoxyphenyl)-N,2-dimethylthieno[2,3-d]pyrimidin-4-amine]",EC50,[1],9 nM
same,EC50,"[2]; H1299, 24 h",15 nM
same,GI50,T-47D cells,5 nM
same,GI50,MX-1 cells,5 nM
same,GI50,MDAMB435 cells,2 nM
same,GI50,H1299 cells,9 nM
same,GI50,HT29 cells,26 nM
"COc1ccc(N(C)c2nc(C)nc3c(C)csc23)cc1 [Example 3, N-(4-Methoxyphenyl)-N,2,7-trimethylthieno[3,2-d]pyrimidin-4-amine]",EC50,"[1]; Homo sapiens, T47D",233 nM
same,EC50,"[2]; Homo sapiens, NCI-H1299, 24 h",281 nM
"COc1ccc(N(C)c2ncnc3cc(I)sc23)cc1 [Example 7, 6-Iodo-N-(4-methoxyphenyl)-N-methylthieno[3,2-d]pyrimidin-4-amine]",EC50,"[1]; Homo sapiens, T47D",> 10000 nM
same,EC50,"[2]; Homo sapiens, NCI-H1299, 24 h",> 10000 nM
"COc1ccc(N(C)c2ncnc3cc(-c4cccnc4)sc23)cc1 [Example 8, N-(4-Methoxyphenyl)-N-methyl-6-(pyridin-3-yl)thieno[3,2-d]pyrimidin-4-amine]",EC50,"[1]; Homo sapiens, T47D",> 10000 nM
same,EC50,"[2]; Homo sapiens, NCI-H1299, 24 h",> 10000 nM
"COc1ccc(N(C)c2ncnc3sccc23)cc1 [Example 9, N-(4-Methoxyphenyl)-N-methylthieno[2,3-d]pynimidin-4-amine]",EC50,[1],19 nM
same,EC50,"[2]; H1299, 24 h",41 nM
same,EC50,[3],57 nM
"COc1ccc(N(C)c2ncnc3c(C)csc23)cc1 [Example 10, N-(4-Methoxyphenyl)-N,7-dimethylthieno[3,2-d]pyrimidin-4-amine]",EC50,"[1]; Homo sapiens, T47D",518 nM
same,EC50,"[2]; Homo sapiens, NCI-H1299, 24 h",525 nM
"COc1ccc(Nc2ncnc3scc(C)c23)cc1 [Example 11, N-(4-Methoxyphenyl)-5-methylthieno[2,3-d]pyrimidin-4-amine]",EC50,"[1]; Homo sapiens, T47D",> 10000 nM
same,EC50,"[2]; Homo sapiens, NCI-H1299, 24 h",> 10000 nM
"COc1ccc(N(C)c2ncnc3scc(C)c23)cc1 [Example 12, N-(4-Methoxyphenyl)-N,5-dimethylthieno[2,3-d]pyrimidin-4-amine]",EC50,"[1]; Homo sapiens, T47D",12 nM
same,EC50,"[2]; Homo sapiens, NCI-H1299, 24 h",19 nM
same,EC50,"[3]; Homo sapiens, SNU-398",15 nM
"COc1ccc(Nc2nc(C)nc3scc(C)c23)cc1 [Example 13, N-(4-Methoxyphenyl)-2,5-dimethylthieno[2,3-d]pyrimidin-4-amine hydrochloride]",EC50,"[1]; Homo sapiens, T47D",> 10000 nM
same,EC50,"[2]; Homo sapiens, NCI-H1299, 24 h",> 10000 nM
"COc1ccc(Nc2ncnc3ccsc23)cc1 [Example 14, N-(4-Methoxyphenyl)-thieno[3,2-d]pyrimidin-4-amine hydrochloride]",EC50,"[1]; Homo sapiens, T47D",> 10000 nM
same,EC50,"[2]; Homo sapiens, NCI-H1299, 24 h",> 10000 nM
"COc1ccc(OC)c(N(C)c2nc(C)nc3ccsc23)c1 [Example 16, N-(2,5-Dimethoxyphenyl)-N,2-dimethylthieno[3,2-d]pyrimidin-4-amine]",EC50,"[1]; Homo sapiens, T47D",> 10000 nM
same,EC50,"[2]; Homo sapiens, NCI-H1299, 24 h",> 10000 nM
"Cc1cc(N(C)c2ncnc3ccsc23)no1 [Example 17, N-Methyl-N-(5-methylisoxazol-3-yl)thieno[3,2-d]pyrimidin-4-amine]",EC50,"[1]; Homo sapiens, T47D",> 10000 nM
same,EC50,"[2]; Homo sapiens, NCI-H1299, 24 h",> 10000 nM
"COc1ccc(N(C)c2ncnc3sc(C)cc23)cc1 [Example 18, N-(4-Methoxy-phenyl)-N,6-dimethylthieno[2,3-d]pyrimidin-4-amine hydrochloride]",EC50,"[1]; Homo sapiens, T47D",125 nM
same,EC50,"[2]; Homo sapiens, NCI-H1299, 24 h",184 nM
"COc1ccc(N(C)c2nc(-c3ccccc3)nc3ccsc23)cc1 [Example 19, N-(4-Methoxyphenyl)-N-methyl-2-phenylthieno[3,2-d]pyri idin-4-amine hydrochloride]",EC50,[1],337 nM
same,EC50,"[2]; H1299, 24 h",615 nM
"COc1ccc(N(C)c2nc(SC)nc3ccsc23)cc1 [Example 20, N-(4-Methoxyphenyl)-N-methyl-2-(methylthio)thieno[3,2-d]pyrimidin-4-amine hydrochloride]",EC50,"[1]; Homo sapiens, T47D",36 nM
same,EC50,"[2]; Homo sapiens, NCI-H1299, 24 h",28 nM
same,EC50,"[3]; Homo sapiens, SNU-398",81 nM
"COc1ccc(OC)c(N(C)c2ncnc3ccsc23)c1 [Example 21, N-(2,5 -Dimethoxyphenyl)-N-methylthieno[3,2-d]pyrimidin-4-amin]",EC50,"[1]; Homo sapiens, T47D",2500 nM
same,EC50,"[2]; Homo sapiens, NCI-H1299, 24 h",4940 nM
"COC(=O)c1ccc(N(C)c2ncnc3ccsc23)cc1 [Example 22, N-(4-Methoxycarbonylphenyl)-N-methylthieno[3,2-d]pyrimidin-4-amine hydrochloride]",EC50,"[1]; Homo sapiens, T47D",185 nM
same,EC50,"[2]; Homo sapiens, NCI-H1299, 24 h",327 nM
"COc1ccc(N(C)c2ncnc3sc(C)c(C)c23)cc1 [Example 23, N-(4-Methoxyphenyl)-N,5,6-trimethylthieno[2,3-d]pyrimidin-4-amine]",EC50,"[1]; Homo sapiens, T47D",19 nM
same,EC50,"[2]; Homo sapiens, NCI-H1299, 24 h",51 nM
same,EC50,"[3]; Homo sapiens, SNU-398",30 nM
"COc1ccccc1N(C)c1ncnc2ccsc12 [Example 25, N-(2-Methoxyphenyl)-N-methylthieno[3,2-d]pyrimidin-4-amine]",EC50,"[1]; Homo sapiens, T47D",> 10000 nM
same,EC50,"[2]; Homo sapiens, NCI-H1299, 24 h",> 10000 nM
"COc1ccc(N(C)c2ncnc3ccsc23)cc1OC [Example 26, N-(3,4-Dimethoxyphenyl)-N-methylthieno[3,2-d]pyrimidin-4-amine]",EC50,"[1]; Homo sapiens, T47D",1630 nM
same,EC50,"[2]; Homo sapiens, NCI-H1299, 24 h",2620 nM
"COc1cccc(N(C)c2ncnc3ccsc23)c1 [Example 27, N-(3-methoxyphenyl)-N-methylthieno[3,2-d]pyrimidin-4-amine]",EC50,"[1]; Homo sapiens, T47D",> 10000 nM
same,EC50,"[2]; Homo sapiens, NCI-H1299, 24 h",> 10000 nM
"COc1cc(OC)cc(N(C)c2ncnc3ccsc23)c1 [Example 28, N-(3,5-dimethoxyphenyl)-N-methylthieno[3,2-d]pyrimidin-4-amine]",EC50,"[1]; Homo sapiens, T47D",> 10000 nM
same,EC50,"[2]; Homo sapiens, NCI-H1299, 24 h",> 10000 nM
